Legend:
[1] = tested on: parental wild-type Ba/F3 cells; assay: Ba/F3 (WT) cell proliferation assay (Alamar Blue); assay type: cell-based, murine; details: read-out: BaF3 WT prolif
Method: (§1) Ba/F3-TEL-FGFR3 & Ba/F3 (WT) Cell Proliferation Assays
(§2) Stably transfected Ba/F3-TEL-FGFR3 cells were plated out into black 96-well tissue culture plates with clear bottoms in RPMI medium containing 10% FBS and 0.25 mg/ml G418 at a density of 5×10^3 cells/well (200 μl per well). The parental wild-type Ba/F3 cells (DSMZ no.: ACC 300) were plated out into black 96-well tissue culture plates with clear bottoms in RPMI medium containing 10% FBS and 2 ng/ml mouse IL-3 (R&D Systems) at a density of 2.5×10^3 cells/well (200 μl per well). Plates were placed in an incubator overnight before adding the compounds the following day. Dilutions of compounds were made in DMSO starting at 10 mM and were diluted into the wells to give a final DMSO concentration of 0.1% in assay. Compounds were left on the cells for 72 hours before the plates were removed from the incubator and 20 μl of Alamar Blue™ (Biosource) was added to each well. Plates were placed in the incubator for 4-6 hours before reading plates at 535 nm (excitation)/590 nm (emission) on a Fusion plate reader (Packard). Where inhibition is high an IC50 can be determined.

[2] = biological target: T1, FGFR3 (Homo sapiens, UniProt P22607); assay: FGFR3 in vitro kinase inhibitory activity assay; assay type: biochemical; details: read-out: FGFR3 IC50(μM) or % I
T1 construct: purchased Upstate
Method: (§3) FGFR3, VEGFR2 and PDGFR in vitro Kinase Inhibitory Activity Assays
(§4) Enzymes (from Upstate), prepared at 2× final concentration, were incubated with test compounds, biotinylated Flt3 substrate (biotin-VASSDNEYFYVDF) (Cell Signalling Technology Inc.) and ATP in the appropriate assay buffer (Table 1). The reaction was allowed to proceed for 3 hours (FGFR3), 1 hour (VEGFR2, PDGFR-beta) at room temperature on a plate shaker at 700 rpm before being stopped with 35 mM EDTA, pH 8 (FGFR3, VEGFR2) or 55 mM EDTA, pH 8 (PDGFR-beta). 5× detection mix/50 mM HEPES pH 7.5, 0.1% BSA, 11.34 nM Eu-anti-pY (PY20) (PerkinElmer) 74 nM SA-XL665 (Cisbio) for FGFR3, 50 mM HEPES, pH 7.5, 0.1% BSA, 11.34 nM Eu-anti-pY (PY20), 187.5 nM SA-XL665 for VEGFR2 and 50 mM HEPES, pH 7.5, 0.1% BSA, 11.34 nM Eu-anti-pY (PT66) (PerkinElmer), 375 nM SA-XL665 (Cisbio) for PDGFR-beta) was then added to each well and the plate sealed and incubated at room temperature for one hour on a plate shaker at 700 rpm. The plate was then read on a Packard Fusion plate reader or a BMG Pherastar both in TRF mode.

[3] = biological target: T2, VEGFR2 (Homo sapiens, UniProt P35968); assay: VEGFR2 in vitro kinase inhibitory activity assay; assay type: biochemical; details: read-out: VEGFR2 IC50(μM) or % I
T2 construct: purchased Upstate
Method: as §3, §4
Kinase Assay buffers were:
B: 50 mM HEPES pH 7.5, 6 mM MnCl2, 1 mM DTT, 0.01% TritonX-100, 0.1 mM Sodium orthovanadate

[4] = biological target: T3, Ba/F3-TEL-FGFR3 cells (Homo sapiens, UniProt P22607); assay: Ba/F3-TEL-FGFR3 cell proliferation assay (Alamar Blue); assay type: cell-based, murine; details: 72 hours; read-out: BaF3-TEL-FGFR3 prolif
T3 construct: fused on or other part: TEL (ETV6) N-terminal oligomerising part fused to the FGFR3 kinase part; P41212 (Transcription factor ETV6)
Method: as §1, §2

[5] = biological target: T4, Ba/F3-Flt3 cells (Homo sapiens, UniProt P36888, cells depend on it, form not given); assay: Ba/F3-Flt3 assay (Alamar Blue); assay type: cell-based, murine; details: without IL3
T4 construct: Ba/F3-flt3 − IL3 pIC50; other: without IL3
T4 sequence (P36888 1-993): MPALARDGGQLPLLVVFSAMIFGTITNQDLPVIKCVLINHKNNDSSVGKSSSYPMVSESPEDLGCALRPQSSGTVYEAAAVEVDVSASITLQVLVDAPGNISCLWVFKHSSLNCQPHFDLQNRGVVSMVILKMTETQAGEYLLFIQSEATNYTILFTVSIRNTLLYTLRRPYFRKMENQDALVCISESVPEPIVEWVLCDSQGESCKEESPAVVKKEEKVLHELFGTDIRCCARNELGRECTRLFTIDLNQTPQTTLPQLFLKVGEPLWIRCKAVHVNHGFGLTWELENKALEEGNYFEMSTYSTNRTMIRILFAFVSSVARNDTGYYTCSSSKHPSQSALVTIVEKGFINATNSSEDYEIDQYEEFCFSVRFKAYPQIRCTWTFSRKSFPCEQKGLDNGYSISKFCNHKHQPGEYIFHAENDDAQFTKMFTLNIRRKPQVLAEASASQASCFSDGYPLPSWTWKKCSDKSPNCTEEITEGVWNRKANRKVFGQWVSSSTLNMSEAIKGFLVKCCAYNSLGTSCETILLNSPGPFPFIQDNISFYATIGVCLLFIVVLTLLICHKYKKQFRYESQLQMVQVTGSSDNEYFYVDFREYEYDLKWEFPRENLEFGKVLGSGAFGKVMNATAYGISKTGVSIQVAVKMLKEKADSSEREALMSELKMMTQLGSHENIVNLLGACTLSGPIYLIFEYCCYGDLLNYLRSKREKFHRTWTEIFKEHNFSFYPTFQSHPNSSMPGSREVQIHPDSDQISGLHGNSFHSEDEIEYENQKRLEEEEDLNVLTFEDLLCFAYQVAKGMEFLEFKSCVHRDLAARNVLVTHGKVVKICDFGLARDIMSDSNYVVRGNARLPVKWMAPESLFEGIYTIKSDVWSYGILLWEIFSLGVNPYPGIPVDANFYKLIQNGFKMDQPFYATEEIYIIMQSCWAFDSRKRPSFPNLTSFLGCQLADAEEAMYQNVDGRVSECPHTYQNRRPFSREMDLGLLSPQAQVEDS
Description: (§5) Ba/F3, a murine interleukin-3 dependent pro-B cell line is increasingly popular as a model system for assessing both the potency and downstream signaling of kinase oncogenes, and the ability of small-molecule kinase inhibitors to block kinase activity. Facilitated by their growth properties. Ba/F3 cells have recently been adapted to high throughput assay formats for compound profiling. Further, several published approaches show promise in predicting resistance to small-molecule kinase inhibitors elicited by point mutations interfering with inhibitor binding (Ba/F3 cells and their use in kinase drug discovery; Markus Warmuth, Sungjoon Kim, Xiang-ju Gu, Gang Xia and Francisco Adria'n; Curr Opin Oncol 19:55-60).
(§6) Ba/F3-Flt3 cells (cultured in phenol red free RPMI-1640, 10% A FCS and 50 μg/ml Gentamycin at 37° C. and 5% 002) were plated at a density of 10000 cells in a total volume of 180 μl medium in a black TC-treated sterile 96-well plate (Corning). After 24 hours, drugs in different dilutions were added to a final volume of 200 μl and at a final DMSO concentration of 0.2% prior to incubation at 37° C., and 5% CO2.
(§7) After 24 h, to each well 40 μl Alamar Blue solution (Aldrich) was added and the cells were further incubated for 4 hours at 37° C. Fluorescence (ex. 544, em. 590 nm) was measured using a fluorescence reader (Labsystems) and IC50's were calculated.
(§8) In the condition containing IL3, 10 ng/ml of murine IL3 (PeproTech) was added during compound incubation.

[6] = tested on: Ba/F3-Flt3 cells; assay: Ba/F3-Flt3 assay (Alamar Blue); assay type: cell-based, murine; details: Mus musculus, 24 h; with 10 ng/ml murine IL3; read-out: Ba/F3-flt3 + IL3 pIC50 (converted)
Description: as §5, §6, §7, §8

[7] = tested on: human prostate cancer PC3 cells; assay: EB1 cellular assay (Eb1 Comet assay, microtubule disruption); assay type: cell-based; details: PC-3, lowest active concentration: Eb1 foci absent in at least 50% of treated PC3 cells, 1 hour, read-out: Eb1 LAC
Method: The Eb1 Comet assay relies on the detection of the Eb1 protein at the plus end of polymerizing microtubules (Mimori-Kiyosue, 2000) using indirect immunofluorescence. Disruption of microtubule dynamics through de-polymerization or stabilization results in a de-localization of Eb1 from the growing microtubule ends and this is visualized by the disappearance of Eb1 containing cytoplasmic foci.
Briefly, human prostate cancer PC3 cells obtained from the American Type Culture Collection were grown in 96-well plates (Greiner, cat. no. 655090) in HAM's F12 medium as recommended by the provider (ATCC). The cells were treated for 1 hour at 37° C. with compounds dissolved in DMSO (0.6% final DMSO concentration). The culture medium was then removed by aspiration and the cells were fixed by adding cold methanol (−20° C.). After a 15 minutes incubation at −20° C., the cells were washed twice with DPBS (Gibco) containing 0.5% Triton X-100. Mouse Eb1 antibody (BD Transduction Laboratories, cat. no. 610534) was added to the cells (1/250 dilution in DPBS containing 1% BSA) and incubated overnight at room temperature. The antibody was subsequently removed and the cells washed twice with DPBS, 0.5% Triton X-100. Secondary goat anti-mouse antibody conjugated to Alexa 488 fluorescent dye (Molecular Probes) was added at a 1/500 dilution in DPBS, 1% BSA and incubated for 1 hour at 37° C. The cells were washed twice with DPBS, 0.5% Triton X-100 and then DPBS containing 0.5% Triton X-100 and 1/5000 Hoechst 33342 (Molecular Probes) was added. Microscopy based Eb1 foci visualization was carried out using an IN Cell Analyser 1000 (Amersham Biosciences) using a 20× objective. Compound dependent microtubule disruption was visually determined by the disappearance in Eb1 foci. The lowest active concentration (LAC) was determined as the concentration where Eb1 foci were absent in at least 50% of the treated cells. Herein the effects of test compounds are expressed as pLAC (the negative log value of the LAC-value)

T1 sequence (P22607 23-806): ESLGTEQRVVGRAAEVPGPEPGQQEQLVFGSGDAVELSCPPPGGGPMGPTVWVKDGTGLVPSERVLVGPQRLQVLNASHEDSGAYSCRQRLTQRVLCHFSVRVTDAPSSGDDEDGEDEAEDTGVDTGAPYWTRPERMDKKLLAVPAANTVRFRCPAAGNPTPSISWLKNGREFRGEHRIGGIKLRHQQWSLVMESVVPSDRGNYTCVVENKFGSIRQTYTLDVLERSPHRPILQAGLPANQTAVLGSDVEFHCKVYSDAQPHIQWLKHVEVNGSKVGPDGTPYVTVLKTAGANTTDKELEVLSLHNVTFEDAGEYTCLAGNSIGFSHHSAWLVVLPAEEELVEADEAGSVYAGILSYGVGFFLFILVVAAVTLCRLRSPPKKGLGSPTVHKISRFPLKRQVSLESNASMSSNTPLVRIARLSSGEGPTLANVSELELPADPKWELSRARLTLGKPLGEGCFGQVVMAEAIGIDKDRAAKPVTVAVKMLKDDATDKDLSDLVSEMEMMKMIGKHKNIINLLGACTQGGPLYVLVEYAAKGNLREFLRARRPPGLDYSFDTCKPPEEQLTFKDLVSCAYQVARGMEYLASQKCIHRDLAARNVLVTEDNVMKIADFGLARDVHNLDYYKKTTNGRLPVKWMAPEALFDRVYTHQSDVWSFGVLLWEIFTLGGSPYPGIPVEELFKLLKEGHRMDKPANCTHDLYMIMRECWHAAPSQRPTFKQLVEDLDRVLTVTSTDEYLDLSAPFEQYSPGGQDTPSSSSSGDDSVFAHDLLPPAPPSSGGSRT
T2 sequence (P35968 20-1356): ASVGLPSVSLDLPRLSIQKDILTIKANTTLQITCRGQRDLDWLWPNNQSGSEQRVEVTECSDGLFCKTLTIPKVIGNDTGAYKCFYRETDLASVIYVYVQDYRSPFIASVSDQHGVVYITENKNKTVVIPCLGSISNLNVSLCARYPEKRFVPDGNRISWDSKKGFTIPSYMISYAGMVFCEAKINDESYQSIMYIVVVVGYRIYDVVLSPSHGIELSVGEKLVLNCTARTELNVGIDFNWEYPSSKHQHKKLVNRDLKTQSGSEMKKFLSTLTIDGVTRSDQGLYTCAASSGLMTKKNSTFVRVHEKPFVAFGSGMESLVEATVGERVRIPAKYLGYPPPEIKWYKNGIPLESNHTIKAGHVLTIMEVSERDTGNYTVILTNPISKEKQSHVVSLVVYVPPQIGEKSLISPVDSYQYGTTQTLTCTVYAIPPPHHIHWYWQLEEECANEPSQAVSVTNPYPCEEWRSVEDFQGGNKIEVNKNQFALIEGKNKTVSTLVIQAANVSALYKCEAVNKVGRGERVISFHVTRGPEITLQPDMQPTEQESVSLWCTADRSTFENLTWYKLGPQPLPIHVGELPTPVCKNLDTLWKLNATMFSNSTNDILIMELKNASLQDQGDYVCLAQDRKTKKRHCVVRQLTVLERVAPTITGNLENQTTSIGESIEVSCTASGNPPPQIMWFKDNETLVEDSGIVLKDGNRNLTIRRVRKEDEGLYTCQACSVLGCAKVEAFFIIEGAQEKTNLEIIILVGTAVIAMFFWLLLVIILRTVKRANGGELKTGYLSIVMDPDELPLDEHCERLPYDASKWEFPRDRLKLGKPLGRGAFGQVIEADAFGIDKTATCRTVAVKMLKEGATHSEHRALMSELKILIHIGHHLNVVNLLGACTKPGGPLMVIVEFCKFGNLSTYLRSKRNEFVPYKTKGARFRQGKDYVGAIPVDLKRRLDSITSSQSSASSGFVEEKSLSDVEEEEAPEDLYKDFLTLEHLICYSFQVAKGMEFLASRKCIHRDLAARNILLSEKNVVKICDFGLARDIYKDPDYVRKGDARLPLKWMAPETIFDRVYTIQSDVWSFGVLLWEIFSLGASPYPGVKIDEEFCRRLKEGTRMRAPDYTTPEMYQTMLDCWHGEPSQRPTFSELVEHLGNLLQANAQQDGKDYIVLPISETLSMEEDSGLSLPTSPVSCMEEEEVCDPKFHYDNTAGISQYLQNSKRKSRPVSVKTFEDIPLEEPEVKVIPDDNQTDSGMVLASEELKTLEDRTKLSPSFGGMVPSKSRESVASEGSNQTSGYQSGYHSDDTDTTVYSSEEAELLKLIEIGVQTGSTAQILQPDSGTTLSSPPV
T3 sequence (P22607 whole entry, change not shown, the tested form may be a part): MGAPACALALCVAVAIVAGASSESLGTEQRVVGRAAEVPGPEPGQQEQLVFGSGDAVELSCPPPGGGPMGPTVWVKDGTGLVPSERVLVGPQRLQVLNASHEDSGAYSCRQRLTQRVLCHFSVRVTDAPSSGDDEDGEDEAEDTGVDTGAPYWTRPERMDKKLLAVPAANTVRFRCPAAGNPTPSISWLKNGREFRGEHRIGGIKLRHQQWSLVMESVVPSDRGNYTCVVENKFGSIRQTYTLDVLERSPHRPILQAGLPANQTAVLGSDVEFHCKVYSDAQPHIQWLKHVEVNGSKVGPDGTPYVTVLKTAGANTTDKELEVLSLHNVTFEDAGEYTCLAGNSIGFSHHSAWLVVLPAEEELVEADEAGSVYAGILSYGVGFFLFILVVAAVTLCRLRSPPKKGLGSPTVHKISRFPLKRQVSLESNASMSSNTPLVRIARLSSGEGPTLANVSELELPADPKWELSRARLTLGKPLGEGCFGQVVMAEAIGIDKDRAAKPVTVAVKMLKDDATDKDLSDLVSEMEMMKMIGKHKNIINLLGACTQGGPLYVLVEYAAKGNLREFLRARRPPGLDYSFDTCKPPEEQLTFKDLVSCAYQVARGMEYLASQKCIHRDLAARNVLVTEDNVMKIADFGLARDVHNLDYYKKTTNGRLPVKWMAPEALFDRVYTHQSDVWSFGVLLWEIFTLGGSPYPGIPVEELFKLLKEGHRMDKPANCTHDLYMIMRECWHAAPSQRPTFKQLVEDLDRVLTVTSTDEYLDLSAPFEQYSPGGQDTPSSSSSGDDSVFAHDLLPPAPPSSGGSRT

Structure (SMILES) | IC50 [2] [µM] | IC50 [3] [µM] | GI50 [4] [nM] | Ba/F3-flt3 − IL3 pIC50 [5] | IC50 [6] [nM] | inhibition at 10 µM ([1]; Mus musculus, BaF3, 72 h, % at 10.0 μM) [%] | minimal effective concentration [7] [µM] | inhibition at 0.3 µM ([2]; 3 h, % I at 0.3 μM) [%] | IC50 ([1]; BaF3, 72 hours, with mouse IL-3) [nM]
CC(C)Oc1cc(NC(=O)NCC(F)(F)F)cc(-c2cnc3cc(-c4nnco4)ccn23)c1 [Compound F-22, 1-[3-Isopropoxy-5-(7-[1,3,4]oxadiazol-2-yl-imidazo[1,2-a]pyridin-3-yl)-phenyl]-3-(2,2,2-trifluoro-ethyl)-urea] | 0.041 | 1.1 | 1300 | – | – | 19 | – | – | –
Cc1nnc(-c2ccn3c(-c4cc(NC(=O)NCC(C)C)cc(OC(C)C)c4)cnc3c2)o1 [Compound F-14, 1-Isobutyl-3-{3-isopropoxy-5-[7-(5-methyl-[1,3,4]oxadiazol-2-yl)-imidazo[1,2-a]pyridin-3-yl]-phenyl}-urea] | 0.2 | 2.6 | – | – | – | – | – | – | –
O=C(NCC(F)(F)F)Nc1cc(OC2CCC2)cc(-c2cnc3cc(-c4ccnc(C(F)(F)F)n4)ccn23)c1 [Compound F-12, 1-{3-Cyclobutoxy-5-[7-(2-trifluoromethyl-pyrimidin-4-yl)-imidazo[1,2-a]pyridin-3-yl]-phenyl}-3-(2,2,2-trifluoro-ethyl)-urea] | – | 2.2 | – | <5 | > 10000 | – | > 10 | 60 | –
Cc1nnc(-c2ccn3c(-c4cc(CN(C)C)cc(NC(=O)NCC(F)(F)F)c4)cnc3c2)o1 [Compound F-24, 1-{3-Dimethylaminomethyl-5-[7-(5-methyl-[1,3,4]oxadiazol-2-yl)-imidazo[1,2-a]pyridin-3-yl]-phenyl}-3-(2,2,2-trifluoroethyl)-urea] | – | 2.8 | – | <5 | > 10000 | – | > 10 | – | –
CNCc1cc(NC(=O)NCC(F)(F)F)cc(-c2cnc3cc(-c4nnc(C)o4)ccn23)c1 [Compound F-25, 1-{3-Methylaminomethyl-5-[7-(5-methyl-[1,3,4]oxadiazol-2-yl)-imidazo[1,2-a]pyridin-3-yl]-phenyl}-3-(2,2,2-trifluoroethyl)-urea] | 0.46 | 1.7 | – | <5 | > 10000 | – | > 10 | – | –

Continued by falling IC50 [3], values first:

IC50 [2] [µM] | IC50 [3] [µM] | GI50 [4] [nM] | Ba/F3-flt3 − IL3 pIC50 [5] | IC50 [6] [nM] | Structure (SMILES) | inhibition at 10 µM ([1]; Mus musculus, BaF3, 72 h, % at 10.0 μM) [%] | minimal effective concentration [7] [µM] | inhibition at 0.3 µM ([2]; 3 h, % I at 0.3 μM) [%] | IC50 ([1]; BaF3, 72 hours, with mouse IL-3) [nM]
0.17 | 5.8 | – | <5 | > 10000 | Cc1nnc(-c2ccn3c(-c4cc(NC(=O)NCC(F)(F)F)cc(NC(C)C)c4)cnc3c2)o1 [Compound F-30] | – | 10 | – | –
– | 1.2 | – | <5 | > 10000 | Cc1nnc(-c2ccn3c(-c4cc(NC(=O)NC(O)C(F)(F)F)cc(OC(C)C)c4)cnc3c2)o1 (stereo not drawn) [Compound F-32, 1-{3-Isopropoxy-5-[7-(5-methyl-[1,3,4]oxadiazol-2-yl)-imidazo[1,2-a]pyridin-3-yl]-phenyl}-3-(2,2,2-trifluoro-1-hydroxyethyl)-urea] | – | > 10 | – | –
0.012 | 0.79 | 240 | – | – | CC(C)Oc1cc(NC(=O)NCC(F)(F)F)cc(-c2cnc3cc(-c4cc(N(C)C)ncn4)ccn23)c1 [Compound F-21, 1-{3-[7-(6-Dimethylamino-pyrimidin-4-yl)-imidazo[1,2-a]pyridin-3-yl]-5-isopropoxy-phenyl}-3-(2,2,2-trifluoro-ethyl)-urea] | – | – | – | 2300

Source: US8722687B2, “Imidazo [1,2-A]pyridine derivatives as FGFR kinase inhibitors for use in therapy” (Astex Therapeutics Ltd, priority 2009, dated 2014)
